In EP3800188A1, “SUBSTITUTED PYRAZOLOPYRIMIDINES AS IRAK4 INHIBITORS” (Bayer AG, priority 2019, dated 2021):

Columns and labels:
human IRAK4 = target: T1, human IRAK4 (Homo sapiens, UniProt Q9NWZ3); experiment: Human IRAK4 kinase activity inhibition assay (IRAK4 TR-FRET assay); assay type: biochemical; details: 1 mM ATP, GST-human IRAK4, average or median values
T1 construct: GST (N); made in house; host or cells: baculovirus-infected Hi5 (BTI-TN-5B1-4) insect cells
T1 sequence (Q9NWZ3 1-460): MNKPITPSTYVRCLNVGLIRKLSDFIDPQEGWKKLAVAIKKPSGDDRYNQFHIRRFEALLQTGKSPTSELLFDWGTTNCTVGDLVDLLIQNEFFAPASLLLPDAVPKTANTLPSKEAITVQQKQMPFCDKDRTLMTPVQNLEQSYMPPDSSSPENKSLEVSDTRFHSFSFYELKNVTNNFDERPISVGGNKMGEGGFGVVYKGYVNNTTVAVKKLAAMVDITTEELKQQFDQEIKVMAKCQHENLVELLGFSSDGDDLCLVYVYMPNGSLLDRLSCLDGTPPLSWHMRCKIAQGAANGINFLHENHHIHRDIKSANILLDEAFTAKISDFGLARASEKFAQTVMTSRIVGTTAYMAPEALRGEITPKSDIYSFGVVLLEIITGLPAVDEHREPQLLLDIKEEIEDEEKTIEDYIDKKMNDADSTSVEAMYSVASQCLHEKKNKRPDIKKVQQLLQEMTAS
Summary of the method: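 GST-IRAK4 from insect cells (about 0.2 nM, linear range) was preincubated 15 min with compound (11 concentrations, 20 µM–0.073 nM) in HEPES pH 7.5 with MgCl2 and DTT before kinase reaction on a biotinylated peptide. Phosphopeptide was detected by TR-FRET (Eu anti-mouse-IgG/anti-phosphoserine/streptavidin-XL665, 1 h at 22°C) as the 665/620 nm ratio, normalized to no-compound and no-enzyme controls.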

[1] = Metabolic stability in human liver microsomes; details: 1 µM compound; for CLblood, human microsomes: hepatic in vivo blood clearance calculated with well stirred liver model, '(stable)' given beside < 0.01; for Fmax, human microsomes: maximal oral bioavailability calculated with well stirred liver model, 0.5 mg/mL protein, '(stable)' given beside 100
Method: The in vitro metabolic stability of test compounds was determined by incubating them at 1 µM in a suspension liver microsomes in 100 mM phosphate buffer, pH7.4 (NaH2PO4 x H2O + Na2HPO4 x 2H2O) and at a protein concentration of 0.5 mg/mL at 37° C. The microsomes were activated by adding a co-factor mix containing 8 mM Glukose-6-Phosphat, 4 mM MgCl2, 0.5 mM NADP and 1 IU/mL G-6-P-Dehydrogenase in phosphate buffer, pH 7.4. The metabolic assay was started shortly afterwards by adding the test compound to the incubation at a final volume of 1 mL. Organic solvent in the incubations was limited to ≤0.01 % dimethylsulfoxide (DMSO) and ≤1% acetonitril. During incubation, the microsomal suspensions were continuously shaken at 580 rpm, and aliquots were taken at 2, 8, 16, 30, 45 and 60 min, to which equal volumes of cold methanol were immediately added. Samples were frozen at -20° C over night, subsequently centrifuged for 15 min at 3000 rpm and the supernatant was analyzed with an Agilent 1200 HPLC-system with LCMS/MS detection.
The half-life of a test compound was determined from the concentration-time plot. From the half-life the intrinsic clearances were calculated. Together with the additional parameters liver blood flow, specific liver weight and microsomal protein content the hepatic in vivo blood clearance (CL) and the maximal oral bioavailability (Fmax) were calculated using the "well stirred" liver model. The following parameter values were used: Liver blood flow - 1.32 L/h/kg (human), 2.1 L/h/kg (dog); specific liver weight - 21 g/kg (human), 39 g/kg (dog); microsomal protein content - 40 mg/g.

| IC50 (human IRAK4) [nM] | CLblood, human microsomes [1] | Fmax, human microsomes [1] | SMILES |
| --- | --- | --- | --- |
| 9.76 | 0.46 L/h/kg | 65% | CCC1(O)CN(c2nc(N[C@@H]3CNC(=O)C3)nc3c2cnn3-c2cccc(C(F)(F)F)c2)C1 [Example I-3-1, (4S)-4-({4-(3-ethyl-3-hydroxyazetidin-1-yl)-1-[3-(trifluoromethyl)phenyl]-1H-pyrazolo[3,4-d]pyrimidin-6-yl}amino)pyrrolidin-2-one] |
| 7.01 | 0.17 L/h/kg | 87% | O=C1C[C@H](Nc2nc(N3CCC(N4CCOCC4)CC3)c3cnn(-c4cccc(C(F)(F)F)c4)c3n2)CN1 [Example I-27, (4S)-4-({4-[4-(morpholin-4-yl)piperidin-1-yl]-1-[3-(trifluoromethyl)phenyl]-1H-pyrazolo[3,4-d]pyrimidin-6-yl}amino)pyrrolidin-2-one] |
| 6.15 | < 0.01 (stable) L/h/kg | 100 (stable) % | CC1(O)CCN(C2CN(c3nc(N[C@@H]4CNC(=O)C4)nc4c3cnn4-c3cccc(C(F)(F)F)c3)C2)CC1 [Example I-30, (4S)-4-({4-[3-(4-hydroxy-4-methylpiperidin-1-yl)azetidin-1-yl]-1-[3-(trifluoromethyl)phenyl]-1H-pyrazolo[3,4-d]pyrimidin-6-yl)amino)pyrrolidin-2-one] |

The next lines start with the compound.

| SMILES | IC50 (human IRAK4) [nM] | CLblood, human microsomes [1] | Fmax, human microsomes [1] |
| --- | --- | --- | --- |
| CC(C)(O)C1CCN(c2nc(N[C@@H]3CCOC3)nc3c2cnn3-c2cccc(C(F)(F)F)c2)CC1 [Example I-16-2, 2-(1-{6-[(3R)-tetrahydrofuran-3-ylamino]-1-[3-(trifluoromethyl)phenyl]-1H-pyrazolo[3,4-d]pyrimidin-4-yl}piperidin-4-yl)propan-2-ol] | 16.1 | 0.92 L/h/kg | 30% |
| O=S1(=O)CC[C@@H](Nc2nc(N3CC(N4CCOCC4)C3)c3cnn(-c4cccc(C(F)(F)F)c4)c3n2)C1 [Example I-22, N-[(3R)-1,1-dioxidotetrahydrothiophen-3-yl]-4-[3-(morpholin-4-yl)azetidin-1-yl]-1-[3-(trifluoromethyl)phenyl]-1H-pyrazolo[3,4-d]pyrimidin-6-amine] | 99.3 | 0.34 L/h/kg | 74% |
| CC(C)(O)C1CCN(c2nc(N[C@H]3CC[C@@H](O)C3)nc3c2cnn3-c2cccc(C(F)(F)F)c2)CC1 [Example I-29, (1R,3S)-3-({4-[4-(2-hydroxypropan-2-yl)piperidin-1-yl]-1-[3-(trifluoromethyl)phenyl]-1H-pyrazolo[3,4-d]pyrimidin-6-yl}amino)cyclopentanol] | 10.8 | 0.43 L/h/kg | 68% |
| CN1CC[C@H](Nc2nc(N3C[C@@H](O)[C@H](O)C3)c3cnn(-c4cccc(C(F)(F)F)c4)c3n2)C1 [Example I-31, (3R,4R)-1-(6-{[(3S)-1-methylpyrrolidin-3-yl]amino}-1-[3-(trifluoromethyl)phenyl]-1H-pyrazolo[3,4-d]pyrimidin-4-yl)pyrrolidine-3,4-diol] | 12.6 | < 0.01 (stable) L/h/kg | 100 (stable) % |
| CC(C)(N)C1CN(c2nc(NC3CCS(=O)(=O)CC3)nc3c2cnn3-c2cccc(C(F)(F)F)c2)C1 [Example I-45, 4-[3-(2-aminopropan-2-yl)azetidin-1-yl]-N-(1,1-dioxidotetrahydro-2H-thiopyran-4-yl)-1-[3-(trifluoromethyl)phenyl]-1H-pyrazolo[3,4-d]pyrimidin-6-amine] | 5.1 | 0.05 L/h/kg | 96% |
| CC(C)(N)C1CCN(c2nc(NC3CCS(=O)(=O)CC3)nc3c2cnn3-c2cccc(C(F)(F)F)c2)CC1 [Example I-46, 4-[4-(2-aminopropan-2-yl)piperidin-1-yl]-N-(1,1-dioxidotetrahydro-2H-thiopyran-4-yl)-1-[3-(trifluoromethyl)phenyl]-1H-pyrazolo[3,4-d]pyrimidin-6-amine] | 1.4 | 0.25 L/h/kg | 81% |
